Experimental findings from patent US8211445B2, “PSM peptides as vaccine targets against methicillin-resistant Staphylococcus” (The United States of America, as represented by the …, priority 2007, dated 2012) are described below.

Residues, ends and D or L forms follow the SMILES beside them.

The test system of this data set is sheep red blood cells. Kind of data set: Hemolysis of sheep red blood cells. Type of data set: cell-based. The note with it: 10 μg/ml, compared to other PSMs (FIG. 21G). How it is done: FIG. 8 includes several graphs showing hemolytic activities of PSMs. […] In FIGS. 8A and 8B, the data are mean±SEM of three independent measurements. P values are vs. DMSO in FIG. 8A and vs. wild-type in FIG. 8B. Hemolytic activity was determined by incubating samples with a 2% (v/v) suspension of sheep red blood cells and incubation at 37° C. for 1 hour. Synthetic PSM peptides or filtered bacterial overnight culture supernatants were diluted in PBS and added to sheep erythrocytes at a final concentration of 10 μg/ml for the peptides and 1:200 for culture filtrates.
Hemolysis: Hemolytic activity of PSM peptides was determined by incubating samples with a 2% (v/v) sheep red blood cells and incubation for 1 h at 37° C. as described (Wang et al., Nature Med. 13:1510-1514, 2007). Hemolytic activity of S. aureus wild-type and psm-mec deletion strains was assessed by streaking on sheep blood agar plates.

Turning to `CC[C@H](C)[C@H](NC(=O)[C@H](CS)NC(=O)[C@@H](NC(=O)[C@H](CCCCN)NC(=O)[C@@H](NC(=O)[C@H](CC(C)C)NC(=O)[C@H](CC(=O)O)NC(=O)[C@@H](NC(=O)[C@@H](NC(=O)[C@H](CO)NC(=O)[C@@H](NC(=O)[C@@H](NC(=O)[C@@H](NC(=O)CNC(=O)[C@@H](NC(=O)[C@H](Cc1ccccc1)NC(=O)[C@H](CC(=O)O)NC(=O)[C@H](CCSC)NC=O)[C@@H](C)O)C(C)C)[C@@H](C)CC)[C@@H](C)O)[C@@H](C)CC)[C@@H](C)CC)[C@@H](C)CC)[C@@H](C)O)C(=O)N[C@@H](CCC(N)=O)C(=O)N[C@@H](C)C(=O)N[C@@H](Cc1ccccc1)C(=O)NCC(=O)O` [PSM-mec] (HELM PEPTIDE1{[O=C[*:2]].M.D.F.T.G.V.I.T.S.I.I.D.L.I.K.T.C.I.Q.A.F.G}$$$$V2.0), the “lysis of sheep erythrocytes” value is reported as “intermediate range”.
